# Results: patent US8394971B2, “Indole derivatives as selective androgen receptor modulators (SARMS)” (Janssen Pharmaceutica N.V., priority 2004, dated 2013)
# Tested on: testosterone-enhanced ventral prostate and seminal vesicle weights in castrated male Sprague Dawley rats
# Test: Ventral Prostate and Seminal Vesicle Weight In Vivo Assay
# Design: species or system rat
# Conditions: immature castrated rats; once daily for five days, usually orally at 40 mg/kg, with testosterone propionate 2 mg/kg s.c.
# Experimental: Immature (approximately 50 g) castrated male Sprague Dawley rats (Charles River) were treated once daily for five days with test compound (usually given orally at 40 mg/kg in a volume of 0.3 mL, in 30% cyclodextrin or 0.5% methylcellulose vehicle) and with testosterone propionate (given subcutaneously by injection at the nape of the neck at 2 mg/kg, in a volume of 0.1 mL in sesame oil). On the sixth day, the rats were euthanized by asphyxiation in carbon dioxide. Ventral prostates and seminal vesicles were removed and their wet weights determined.
# A test compound was said to be “active” if the non weight adjusted prostate weight was ≦40 mg or the % Inhibition prostate weight, body weight adjusted was ≧40% @2 mg/day dosage.
row,Compound,active / inactive (inhibition of testosterone-enhanced prostate weight)
1,"CCSCC(C)(O)c1cc2cc(Cl)c(C#N)cc2[nH]1 (single isomer, unassigned) [compound 228]",inactive
2,CCSCC(C)(O)c1cc2cc(Cl)ccc2[nH]1 (racemic) [compound 353],inactive
3,CC(C)(O)c1[nH]c2cc(C(F)(F)F)c(C#N)cc2c1Cl [compound 287],inactive
4,CCSCC(C)(O)c1cc2cc(C#N)c(C(F)(F)F)cc2n1CC (racemic) [compound 243],active
5,CCSCC(O)(c1cc2cc(C#N)c(C(F)(F)F)cc2[nH]1)C(F)(F)F (racemic) [compound 327],active
6,"CCSCC(C)(O)c1c(C)c2cc(C#N)c(C(F)(F)F)cc2n1C (single isomer, unassigned) [compound 317]",inactive
7,"CC(O)(c1cc2cc(C#N)c(C(F)(F)F)cc2[nH]1)C(F)(F)F (stereo not shown) [Compound #335, 2-(2,2,2-Trifluoro-1-hydroxy-1-methyl-ethyl)-6-trifluoromethyl-1H-indole-5-carbonitrile]",active
8,CCS(=O)(=O)CC(C)(O)c1cc2cc(Cl)c(C(F)(F)F)cc2[nH]1 (racemic) [compound 404],active
9,CCSCC(C)(O)c1cc2cc(C#N)c(C(F)(F)F)cc2n1CC#N (racemic) [compound 323],inactive
10,CCSCC(C)(O)c1[nH]c2cc(C(F)(F)F)c(C#N)cc2c1I (racemic) [compound 324],inactive
11,CC(C)(O)c1cc2cc([N+](=O)[O-])c(C(F)(F)F)cc2[nH]1 [compound 274],inactive
12,CCSCC(C)(O)c1cc2cc(N)c(C(F)(F)F)cc2[nH]1 (stereo not shown) [compound 166],inactive
13,CC[S+]([O-])CC(C)(O)c1[nH]c2cc(C(F)(F)F)c(C#N)cc2c1C (mixture of isomers) [compound 245],inactive
14,CCSCC(C)(O)c1cc2cc(C#N)c(C)cc2[nH]1 (racemic) [compound 446],inactive
15,"CC(O)(COc1ccc(C#N)cc1)c1cc2cc(C#N)c(C(F)(F)F)cc2[nH]1 (stereo not shown) [Compound #426, 2-[2-(4-Cyano-phenoxy)-1-hydroxy-1-methyl-ethyl]-6-trifluoromethyl-1H-indole-5-carbonitrile]",inactive
16,CCSCC(C)(O)c1cc2cc(C#N)ccc2[nH]1 (racemic) [compound 403],inactive
17,"CC(O)(c1[nH]c2cc(C(F)(F)F)c(C#N)cc2c1Cl)C(F)(F)F (single isomer, unassigned) [compound 345]",active
18,"CC(O)(c1cc2cc(C#N)c(C(F)(F)F)cc2[nH]1)C(F)(F)F (stereo not shown) [Compound #334, 2-(2,2,2-Trifluoro-1-hydroxy-1-methyl-ethyl)-6-trifluoromethyl-1H-indole-5-carbonitrile]",active
19,CCSCC(C)(O)c1cc2cc(C#N)c(OC)cc2[nH]1 (racemic) [compound 445],inactive
20,CCSCC(C)(O)Cc1cc2cc([N+](=O)[O-])c(C(F)(F)F)cc2[nH]1 (stereo not shown) [compound 10],inactive
21,CCSCC(C)(O)c1cc2nc(C#N)ccc2[nH]1 (racemic) [compound 6],inactive
22,CCSCC(C)(O)c1cc2cc(C#N)c(C(F)(F)F)cc2n1COC (racemic) [compound 322],inactive
23,CC(C)(O)c1cc2cc(Cl)c(C(F)(F)F)cc2[nH]1 [compound 285],inactive
24,"CCS(=O)(=O)CC(C)(O)c1cc2cc([N+](=O)[O-])c(C(F)(F)F)cc2n1C (single isomer, unassigned) [compound 232]",active
25,CCSCC(C)(O)c1cc2cc(Cl)c(C(F)(F)F)cc2n1S(C)(=O)=O (racemic) [compound 146],inactive
26,O=[N+]([O-])c1cc2cc(C3(O)CCSC3)[nH]c2cc1C(F)(F)F (stereo not shown) [compound 18],inactive

row,Compound,active / inactive (inhibition of testosterone-enhanced prostate weight)
1,CCSCC(C)(O)c1[nH]c2cc(C(F)(F)F)c(C#N)cc2c1C#C[Si](C)(C)C (racemic) [compound 325],inactive
2,CC(C)(O)c1[nH]c2cc(C(F)(F)F)c([N+](=O)[O-])cc2c1Cl [compound 275],active
3,CC(C)(O)c1[nH]c2cc(C(F)(F)F)c(C#N)cc2c1I [compound 278],active
4,CC(O)(CSCc1ccccn1)c1cc2cc([N+](=O)[O-])c(C(F)(F)F)cc2[nH]1 (racemic) [compound 204],inactive
5,Cc1c(C(C)(C)O)[nH]c2cc(C(F)(F)F)c([N+](=O)[O-])cc12 [compound 290],inactive
6,"CCSCC(C)(O)c1[nH]c2cc(C(F)(F)F)c([N+](=O)[O-])cc2c1I (single isomer, unassigned) [compound 241]",inactive
7,CCSCC(O)c1[nH]c2cc(C(F)(F)F)c(C#N)cc2c1Br (racemic) [compound 413],inactive
8,CC(C)(O)c1cc2cc(Br)ccc2[nH]1 [compound 294],inactive
9,CCS(=O)(=O)CC(O)c1cc2cc(C#N)c(C(F)(F)F)cc2[nH]1 (racemic) [compound 412],inactive
10,"CC(O)(COc1cccc([N+](=O)[O-])c1)c1cc2cc(C#N)c(C(F)(F)F)cc2[nH]1 (stereo not shown) [Compound #428, 2-[1-Hydroxy-1-methyl-2-(3-nitro-phenoxy)-ethyl]-6-trifluoromethyl-1H-indole-5-carbonitrile]",inactive
11,"CCSCC(C)(O)c1[nH]c2cc(C(F)(F)F)c(C#N)cc2c1I (single isomer, unassigned) [compound 349]",active
12,CC(C)(O)c1[nH]c2cc(C(F)(F)F)c([N+](=O)[O-])cc2c1Br [compound 277],active
13,CCSCC(C)(O)c1cc2cc(C#N)c(C(F)(F)F)cc2n1CC(F)(F)F (racemic) [compound 237],active
14,CSCn1c(C(C)(O)C(F)(F)F)cc2cc(C#N)c(C(F)(F)F)cc21 (racemic) [compound 333],active
15,Cc1c(C(C)(C)O)[nH]c2cc(C(F)(F)F)c(C#N)cc12 [compound 289],active
16,CSCC(C)(O)c1cc2cc(Cl)c(C(F)(F)F)cc2n1S(C)(=O)=O (stereo not shown) [compound 134],inactive
17,"CC(O)(c1[nH]c2cc(C(F)(F)F)c(C#N)cc2c1C#C[Si](C)(C)C)C(F)(F)F (single isomer, unassigned) [compound 347]",active
18,CC(O)(CS(=O)(=O)c1ccc(F)cc1)c1cc2cc(Cl)c(C(F)(F)F)cc2[nH]1 (stereo not shown) [compound 85],inactive
19,CC(C)(O)c1[nH]c2cc(C(F)(F)F)c(Cl)cc2c1I [compound 279],inactive
20,CC(C)(O)c1[nH]c2cc(C(F)(F)F)c(Cl)cc2c1Br [compound 280],inactive
21,CC(C)(O)c1cc2cc(Cl)c(Cl)cc2[nH]1 [compound 405],inactive
22,C#Cc1c(C(C)(O)CSCC)[nH]c2cc(C(F)(F)F)c(C#N)cc12 (racemic) [compound 326],inactive
23,CCSCC(O)(CC)c1cc2cc(Cl)c(C(F)(F)F)cc2[nH]1 (racemic) [compound 181],active
24,CC(O)(C[S+]([O-])c1ccc(F)cc1)c1cc2cc(Cl)c(C(F)(F)F)cc2[nH]1 (stereo not shown) [compound 113],inactive
25,CC(C)(O[Si](C)(C)C)c1cc2cc([N+](=O)[O-])c(C(F)(F)F)cc2n1S(C)(=O)=O [compound 269],inactive
26,"CCSCC(C)(O)c1[nH]c2cc(C(F)(F)F)c([N+](=O)[O-])cc2c1I (single isomer, unassigned) [compound 244]",active
